Assay [1] concerns Male rats (SD/JCL). Description: Antianxiety action (Vogel method, anticonflict water drinking test in rats). The format is in vivo, rat (SD/JCL). Particulars: for minimal effective dose: Rattus norvegicus, rats; for antianxiety action stronger than that of the corresponding racemic modification: from MED values of Table 2.
In assay [2] the test system is benzodiazepine receptor. The assay is described as follows: Inhibition of [3H]diazepam binding to benzodiazepine receptor (crude mitochondrial fraction of rat cerebral cortex). Details: species or system male SD rats. To be noted: in words. As to the method:
The affinity of the compound of the present invention to a benzodiazepine receptor was investigated using radioactive [^3 H] diazepam.
Capability of specific binding to a benzodiazepin receptor was determined in accordance with the method described in the literature (Nature, 266, 732 (1977); European J. Pharmacol., 48, 263 (1978). Specifically, a crude mitochondrial fraction obtained from the cerebral cortex of male SD rats at 9 to 10 weeks of age was suspended in 50 mM Tris-HCL buffer (pH 7.4), and incubated, together with several concentrations of the subject drug and ^3 H-diazepam (final concentration 2 nM), at 4° C. for 20 minutes. This suspension was then filtered through a Whatman GF/B glass fiber filter, and the ^3 H-diazepam radioactivity on the filter was measured using a liquid scintillation counter. The concentration of the subject drug at which ^3 H-diazepam binding was inhibited by 50% was taken as the IC50 value.
Results from a typical compounds (VI) and (VIII) of the present invention and the corresponding racemic modifications thereof are shown in Table 1.

Setting [3] is: po, 0.5 h, p.o., 30 minutes after dosing, water drinking frequency in 3 minutes, read-out: Minimum Effective Dose (MED), antianxiety action (Vogel method).
[4] abbreviates: ip, 0.05 h, i.p., water drinking frequency in 3 minutes, read-out: Minimum Effective Dose (MED), antianxiety action (Vogel method).

Like-named read-outs stand apart in the source and are kept apart here. Where only a bound is given, the exact number is not on record here.

As for `O=C(CC1c2ccccc2C(=O)N1c1ccc2ccc(Cl)nc2n1)N1CCC2(CC1)OCCO2` (racemic) [Racemic modification of (VI), reference compound], the minimal effective dose in assay [1] (setting [3]) is 10 mg/kg. Further, in assay [2], the “affinity to the benzodiazepin receptor versus racemic modification” value is listed as “nearly fully potent action”.

With `O=C(CC1c2ccccc2C(=O)N1c1ccc2ccc(Cl)nc2n1)N1CCC(O)CC1` (racemic) [Racemic modification of (VIII), reference compound], the minimal effective dose in assay [1] (setting [4]) came out at 20 mg/kg.

Take `O=C(C[C@H]1c2ccccc2C(=O)N1c1ccc2ccc(Cl)nc2n1)N1CCC2(CC1)OCCO2` [(VI), (S)-(+)-2-(7-chloro-1,8-naphthylidin-2yl)-3-[(1,4-dioxa-8-azaspiro[4.5]dec-8-yl)carbonylmethyl]isoindolin-1-one]: the minimal effective dose in assay [1] (po, 0.5 h, P.O., read-out: MED for antianxiety action in rats) is not above 1.25 mg/kg; in assay [1] (setting [3]) it was 1.25 mg/kg. Further, the “antianxiety action stronger than that of the corresponding racemic modification” value in assay [1] is on record as 8 times. The “affinity to the benzodiazepin receptor versus racemic modification” value in assay [2] is given as “no enhanced affinity”.

For the molecule `O=C(C[C@H]1c2ccccc2C(=O)N1c1ccc2ccc(Cl)nc2n1)N1CCC(O)CC1` [(VIII), (S)-(+)-2-(7-chloro-1,8-naphthylidin-2-yl)-3-[(4-hydroxypiperidin-1-yl)carbonylmethyl]isoindolin-1-one], the minimal effective dose in assay [1] (setting [4]) was 5 mg/kg. For the same molecule, the “antianxiety action stronger than that of the corresponding racemic modification” value in assay [1] stood at 4 times.

The record behind these values is patent US5273978A, “Optically active isoindoline derivatives, their production and use” (Takeda Chemical Industries, Ltd., priority 1991, dated 1993).
